Measured values reported in ChEMBL document CHEMBL1201862, “PubChem BioAssay data set” (2004).
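Results reflect a 48-hour exposure of cells in 96-well plates to compound at five concentrations. GI50 marks 50% less growth.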 Calls of active or inactive are those of the source. Rule as the data show it: active = GI50 up to about 1.1 µM and inactive = higher.

What was measured:
Experiment in all cases: DTP human tumour cell line panel, 48 h
SK-MEL-2 = system: SK-MEL-2
NCI-H23 = system: NCI-H23
A549 = system: A549
RXF 393 = system: RXF 393
SK-OV-3 = system: SK-OV-3
SR = system: SR
HCT-15 = system: HCT-15
SK-MEL-28 = system: SK-MEL-28
CCRF-CEM = system: CCRF-CEM
SF-539 = system: SF-539
TK-10 = system: TK-10
OVCAR-3 = system: OVCAR-3
LOX IMVI = system: LOX IMVI
K562 = system: K562
Malme-3M = system: Malme-3M
HT-29 = system: HT-29
U-251 = system: U-251
M14 = system: M14
NCI-H226 = system: NCI-H226
UO-31 = system: UO-31

Structure (SMILES): NC(=O)c1oc([N+](=O)[O-])c(-c2ccccc2)c1-c1ccccc1
- GI50 (SK-MEL-2): 15.6 µM (inactive)
- GI50 (NCI-H23): 15.4 µM (inactive)
- GI50 (A549): 21.1 µM (inactive)
- GI50 (RXF 393): 31.6 µM (inactive)
- GI50 (SK-OV-3): 36.1 µM (inactive)
- GI50 (SR): 6.27 µM (inactive)
- GI50 (HCT-15): 15.5 µM
- GI50 (SK-MEL-28): 44 µM (inactive)
- GI50 (CCRF-CEM): 19.1 µM (inactive)
- GI50 (SF-539): 18.5 µM (inactive)
- GI50 (TK-10): 28.6 µM (inactive)
- GI50 (OVCAR-3): 1.24 µM (inactive)
- GI50 (LOX IMVI): 14.1 µM (inactive)
- GI50 (K562): 14.6 µM (inactive)
- GI50 (Malme-3M): 3.49 µM (inactive)
- GI50 (HT-29): 27.2 µM (inactive)
- GI50 (U-251): 24.3 µM (inactive)
- GI50 (M14): 17.7 µM (inactive)
- GI50 (NCI-H226): 11 µM (inactive)
- GI50 (UO-31): 16.3 µM (inactive)

Structure (SMILES): COc1cc(C=O)cc(/C=N/c2ccc(S(N)(=O)=O)cc2)c1O
- GI50 (SK-MEL-2): 4.47 µM (inactive)
- GI50 (NCI-H23): > 100 µM (inactive)
- GI50 (A549): 44.1 µM (inactive)
- GI50 (RXF 393): 3.99 µM (inactive)
- GI50 (SK-OV-3): 2.9 µM (inactive)
- GI50 (SR): 6.11 µM (inactive)
- GI50 (HCT-15): 63.1 µM
- GI50 (SK-MEL-28): 4.36 µM (inactive)
- GI50 (CCRF-CEM): 9.77 µM (inactive)
- GI50 (SF-539): 2.93 µM (inactive)
- GI50 (TK-10): 31.7 µM (inactive)
- GI50 (OVCAR-3): 26.1 µM (inactive)
- GI50 (LOX IMVI): 10.9 µM (inactive)
- GI50 (K562): 47 µM (inactive)
- GI50 (Malme-3M): 2.88 µM (inactive)
- GI50 (HT-29): 13.7 µM (inactive)
- GI50 (U-251): 5.36 µM (inactive)
- GI50 (M14): 3.92 µM (inactive)
- GI50 (NCI-H226): 4.3 µM (inactive)
- GI50 (UO-31): 5.51 µM (inactive)

Structure (SMILES): CC(SC1=CC(=O)c2c(O)ccc(O)c2C1=O)C(=O)O (stereo not given)
- GI50 (SK-MEL-2): > 100 µM (inactive)
- GI50 (NCI-H23): > 56.4 µM (inactive)
- GI50 (A549): 97.3 µM (inactive)
- GI50 (RXF 393): > 48.4 µM (inactive)
- GI50 (SK-OV-3): > 100 µM (inactive)
- GI50 (SR): > 52.8 µM (inactive)
- GI50 (HCT-15): > 37 µM
- GI50 (SK-MEL-28): > 55.1 µM (inactive)
- GI50 (CCRF-CEM): 3.08 µM (inactive)
- GI50 (SF-539): > 68.5 µM (inactive)
- GI50 (TK-10): > 51.5 µM (inactive)
- GI50 (OVCAR-3): 21.4 µM (inactive)
- GI50 (LOX IMVI): > 41.2 µM (inactive)
- GI50 (K562): 13.8 µM (inactive)
- GI50 (Malme-3M): > 44.5 µM (inactive)
- GI50 (HT-29): 41.7 µM (inactive)
- GI50 (U-251): > 42.1 µM (inactive)
- GI50 (M14): 32.1 µM (inactive)
- GI50 (NCI-H226): > 58.5 µM (inactive)
- GI50 (UO-31): > 47.3 µM (inactive)

Structure (SMILES): COc1ccc(/C=c2/s/c(=C(\C#N)c3nc4ccccc4[nH]3)n(-c3ccccc3)c2=O)cc1
- GI50 (SK-MEL-2): > 77.6 µM (inactive)
- GI50 (NCI-H23): 22.6 µM (inactive)
- GI50 (A549): 51.2 µM (inactive)
- GI50 (RXF 393): 36 µM (inactive)
- GI50 (SK-OV-3): 2.96 µM (inactive)
- GI50 (SR): > 100 µM (inactive)
- GI50 (HCT-15): > 53.6 µM
- GI50 (SK-MEL-28): 48.2 µM (inactive)
- GI50 (CCRF-CEM): > 100 µM (inactive)
- GI50 (SF-539): 25.1 µM (inactive)
- GI50 (TK-10): > 52.7 µM (inactive)
- GI50 (OVCAR-3): 26.8 µM (inactive)
- GI50 (LOX IMVI): 36.9 µM (inactive)
- GI50 (K562): > 100 µM (inactive)
- GI50 (Malme-3M): > 42.4 µM (inactive)
- GI50 (HT-29): 6.12 µM (inactive)
- GI50 (U-251): 48.1 µM (inactive)
- GI50 (M14): > 56.9 µM (inactive)
- GI50 (NCI-H226): 16.9 µM (inactive)
- GI50 (UO-31): > 52.6 µM (inactive)

Structure (SMILES): COc1ccc(C2c3cc4c(cc3OC(N3CCOCC3)C2C)OCO4)cc1OC (stereo not given)
- GI50 (SK-MEL-2): 5.77 µM (inactive)
- GI50 (NCI-H23): 20.4 µM (inactive)
- GI50 (A549): 7.82 µM (inactive)
- GI50 (RXF 393): 5.89 µM (inactive)
- GI50 (SK-OV-3): 5.24 µM (inactive)
- GI50 (SR): 7.36 µM (inactive)
- GI50 (HCT-15): 4.76 µM
- GI50 (SK-MEL-28): > 50.5 µM (inactive)
- GI50 (CCRF-CEM): 4.28 µM (inactive)
- GI50 (SF-539): 3.89 µM (inactive)
- GI50 (TK-10): 15.6 µM (inactive)
- GI50 (OVCAR-3): 3.3 µM (inactive)
- GI50 (LOX IMVI): 6.11 µM (inactive)
- GI50 (K562): 4.31 µM (inactive)
- GI50 (Malme-3M): 11.1 µM (inactive)
- GI50 (HT-29): 4.69 µM (inactive)
- GI50 (U-251): 5.52 µM (inactive)
- GI50 (M14): 5.38 µM (inactive)
- GI50 (NCI-H226): 6.9 µM (inactive)
- GI50 (UO-31): 18 µM (inactive)

Structure (SMILES): C=C(Cl)C(Br)(CCl)CCC(Br)C(C)(C)Cl (stereo not given)
- GI50 (SK-MEL-2): 6.24 µM (inactive)
- GI50 (NCI-H23): 3.75 µM (inactive)
- GI50 (A549): 17.7 µM (inactive)
- GI50 (RXF 393): 2.72 µM (inactive)
- GI50 (SK-OV-3): 14 µM (inactive)
- GI50 (SR): 2.92 µM (inactive)
- GI50 (HCT-15): 3.26 µM
- GI50 (SK-MEL-28): 4.68 µM (inactive)
- GI50 (CCRF-CEM): 0.92 µM (active)
- GI50 (SF-539): 6.95 µM (inactive)
- GI50 (TK-10): 12.2 µM (inactive)
- GI50 (OVCAR-3): 6.17 µM (inactive)
- GI50 (LOX IMVI): 1.25 µM (inactive)
- GI50 (K562): 2.44 µM (inactive)
- GI50 (Malme-3M): 2.83 µM (inactive)
- GI50 (HT-29): 2.02 µM (inactive)
- GI50 (U-251): 7.24 µM (inactive)
- GI50 (M14): 2.91 µM (inactive)
- GI50 (NCI-H226): 5.32 µM (inactive)
- GI50 (UO-31): 5.61 µM (inactive)
